Results: patent US20220306659A1, “COMPOUND INHIBITING AND INDUCING DEGRADATION OF EGFR AND ALK” (BEIJING TIDE PHARMACEUTICAL CO., LTD., priority 2019, published 2022)

Target: Ba/F3(EGFR^Del19/T790M/C797S) cells (Homo sapiens, UniProt P00533, DEL746-750/T790M/C797S, cells depend on it)
Experiment: Assay of activity on Ba/F3 cells (CTG, 72 h)
Type: cell-based
Conditions: read-out: IC50 (nM) Ba/F3 (EGFR^Del19/T790M/C797S)
Procedure: (2) A compound stock solution was prepared, and then diluted 3× to obtain a compound dilution. 30 nL of the compound dilution was added to a 384-well plate by Echo (Labcyte, Echo550). The cells were incubated in an incubator at 37° C. and 5% CO2 for 72 h.
The percent inhibition rate (% inhibition) was calculated by the following formula
LUMcmpd: Luminescence value of assay compound.
LUMpositive: Average LUM value of positive drug at a concentration of 10 μM.
LUMvehicle. Average LUM value of negative control group without drug treatment.
The nonlinear regression curve (dose response-variable slope) between the value of inhibition rate (%) and the logarithm of compound concentration was fitted with graphpad prism 8.0, the effect dose curve of compound was drawn, and the IC50 value was calculated.
Y=Bottom+(Top−Bottom)/(1+1^((LogIC50−X)*HillSlope))
X-axis: logarithm of compound concentration; Y axis: inhibition rate ([…]).

Sequence of Ba/F3(EGFR^Del19/T790M/C797S) cells (P00533 with tags, fused parts or gaps DEL746-750/T790M/C797S): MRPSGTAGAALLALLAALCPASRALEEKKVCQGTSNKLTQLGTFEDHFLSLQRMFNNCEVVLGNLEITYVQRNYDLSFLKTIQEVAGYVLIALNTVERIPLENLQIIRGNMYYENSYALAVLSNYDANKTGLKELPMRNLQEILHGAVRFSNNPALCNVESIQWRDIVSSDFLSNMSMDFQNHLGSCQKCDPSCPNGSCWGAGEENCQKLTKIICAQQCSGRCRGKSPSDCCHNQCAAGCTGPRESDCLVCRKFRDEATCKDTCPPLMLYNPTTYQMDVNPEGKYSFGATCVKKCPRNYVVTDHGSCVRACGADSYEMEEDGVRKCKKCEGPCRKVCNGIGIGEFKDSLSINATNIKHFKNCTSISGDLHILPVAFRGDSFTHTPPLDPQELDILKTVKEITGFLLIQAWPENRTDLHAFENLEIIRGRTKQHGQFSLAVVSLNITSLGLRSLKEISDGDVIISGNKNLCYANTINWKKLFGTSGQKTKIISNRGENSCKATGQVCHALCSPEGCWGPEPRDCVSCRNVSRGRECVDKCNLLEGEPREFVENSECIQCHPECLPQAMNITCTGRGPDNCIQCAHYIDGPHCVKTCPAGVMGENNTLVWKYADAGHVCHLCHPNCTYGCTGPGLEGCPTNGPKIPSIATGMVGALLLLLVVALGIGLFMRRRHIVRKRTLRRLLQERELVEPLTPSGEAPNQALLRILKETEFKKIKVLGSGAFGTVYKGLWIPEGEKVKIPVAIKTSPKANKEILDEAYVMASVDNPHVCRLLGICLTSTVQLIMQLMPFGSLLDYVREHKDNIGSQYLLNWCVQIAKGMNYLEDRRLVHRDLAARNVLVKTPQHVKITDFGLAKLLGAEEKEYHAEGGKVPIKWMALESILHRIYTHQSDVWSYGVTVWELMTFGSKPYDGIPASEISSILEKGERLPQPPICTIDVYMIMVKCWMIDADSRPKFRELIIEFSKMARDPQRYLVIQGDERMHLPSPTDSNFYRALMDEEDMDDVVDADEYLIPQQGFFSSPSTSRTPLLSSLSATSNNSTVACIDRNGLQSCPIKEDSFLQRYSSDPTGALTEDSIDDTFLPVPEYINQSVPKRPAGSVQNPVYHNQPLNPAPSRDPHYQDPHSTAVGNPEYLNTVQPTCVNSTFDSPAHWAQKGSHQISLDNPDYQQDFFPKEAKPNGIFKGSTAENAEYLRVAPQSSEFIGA

Compound	GI50 [nM]
COc1cc(N2CCC(N3CCN(CCCC#Cc4cc(C(F)(F)F)cc5c4CN(C4CCC(=O)NC4=O)C5=O)CC3)CC2)ccc1Nc1ncc(Cl)c(Nc2ccccc2P(C)(C)=O)n1 (stereo not shown) [Compound C269, 3-(4-(5-(4-(1-(4-((5-chloro-4-((2-(dimethylphosphoryl)phenyl)amino)pyrimidin-2-yl)amino)-3-methoxyphenyl)piperidin-4-yl)piperazin-1-yl)pent-1-yn-1-yl)-1-oxo-6-(trifluoromethyl)isoindolin-2-yl)piperidine-2,6-dione]	1 to 100
COc1cc(N2CCC(N3CCN(CCCCCc4cccc5c4CN(C4CCC(=O)NC4=O)C5=O)CC3)CC2)c(C)cc1Nc1ncc(Br)c(Nc2ccc3nccnc3c2P(C)(C)=O)n1 (stereo not shown) [Compound C285, 3-(4-(5-(4-(1-(4-((5-bromo-4-((5-(dimethylphosphoryl)quinoxalin-6-yl)amino)pyrimidin-2-yl)amino)-5-methoxy-2-methylphenyl)piperidin-4-yl)piperazin-1-yl)pentyl)-1-oxoisoindolin-2-yl)piperidine-2,6-dione]	1 to 100
COc1cc(N2CCC(N3CCN(CCCCCCc4cccc5c4CN(C4CCC(=O)NC4=O)C5=O)CC3)CC2)c(C)cc1Nc1ncc(Br)c(Nc2ccc3nccnc3c2P(C)(C)=O)n1 (stereo not shown) [Compound C286, 3-(4-(6-(4-(1-(4-((5-bromo-4-((5-(dimethylphosphoryl)quinoxalin-6-yl)amino)pyrimidin-2-yl)amino)-5-methoxy-2-methylphenyl)piperidin-4-yl)piperazin-1-yl)hexyl)-1-oxoisoindolin-2-yl)piperidine-2,6-dione]	1 to 100
COc1cc(N2CCC(N3CCN(CCCCc4cccc5c4CN(C4CCC(=O)NC4=O)C5=O)CC3)CC2)c(C)cc1Nc1ncc(Br)c(Nc2ccc3nccnc3c2P(C)(C)=O)n1 (stereo not shown) [Compound C301, 3-(4-(4-(4-(1-(4-((5-bromo-4-((5-(dimethylphosphoryl)quinoxalin-6-yl)amino)pyrimidin-2-yl)amino)-5-methoxy-2-methylphenyl)piperidin-4-yl)piperazin-1-yl)butyl)-1-oxoisoindolin-2-yl)piperidine-2,6-dione]	1 to 100
COc1cc(N2CCC3(CCN(CCCCc4cccc5c4CN(C4CCC(=O)NC4=O)C5=O)CC3)CC2)c(C)cc1Nc1ncc(Br)c(Nc2ccc3nccnc3c2P(C)(C)=O)n1 (stereo not shown) [Compound C302, 3-(4-(4-(9-(4-((5-bromo-4-((5-(dimethylphosphoryl)quinoxalin-6-yl)amino)pyrimidin-2-yl)amino)-5-methoxy-2-methylphenyl)-3,9-diazaspiro[5.5]undecan-3-yl)butyl)-1-oxoisoindolin-2-yl)piperidine-2,6-dione]	1 to 100

The remaining lines, values ahead:

GI50 [nM]	Compound
1 to 100	COc1cc(N2CCC(N3CCN(CCCCCC#Cc4cc(C(F)(F)F)cc5c4CN(C4CCC(=O)NC4=O)C5=O)CC3)CC2)ccc1Nc1ncc(Cl)c(Nc2ccccc2P(C)(C)=O)n1 (stereo not shown) [Compound C267, 3-(4-(7-(4-(1-(4-((5-chloro-4-((2-(dimethylphosphoryl)phenyl)amino)pyrimidin-2-yl)amino)-3-methoxyphenyl)piperidin-4-yl)piperazin-1-yl)hept-1-yn-1-yl)-1-oxo-6-(trifluoromethyl)isoindolin-2-yl)piperidine-2,6-dione]
1 to 100	COc1cc(N2CCC(N3CCN(CCCCC#Cc4cc(C(F)(F)F)cc5c4CN(C4CCC(=O)NC4=O)C5=O)CC3)CC2)ccc1Nc1ncc(Cl)c(Nc2ccccc2P(C)(C)=O)n1 (stereo not shown) [Compound C268, 3-(4-(6-(4-(1-(4-((5-chloro-4-((2-(dimethylphosphoryl)phenyl)amino)pyrimidin-2-yl)amino)-3-methoxyphenyl)piperidin-4-yl)piperazin-1-yl)hex-1-yn-1-yl)-1-oxo-6-(trifluoromethyl)isoindolin-2-yl)piperidine-2,6-dione]
